The source made the active and inactive calls.
Experiments:
[1] = biological target: Tyrosine-protein phosphatase non-receptor type 5 (Homo sapiens, UniProt P54829); assay: PTPN5 enzyme inhibition – biochemical, fluorescence intensity, uHTS hits, confirmation (AID 602372); assay type: functional; settings: read-out: IC50_Mean
[2] = biological target: Tyrosine-protein phosphatase non-receptor type 11 (Homo sapiens, UniProt Q06124); assay: PTPN11 enzyme inhibitors – biochemical, selectivity assay for STEP inhibitor project, dose response (AID 602367); assay type: functional; settings: read-out: IC50_Mean
[3] = biological target: Dual specificity protein phosphatase 3 (Homo sapiens, UniProt P51452); assay: VHR phosphatase inhibition, dose response, selectivity assay for STEP inhibitor project, biochemical (AID 602374); assay type: functional; settings: read-out: IC50_Mean
[4] = biological target: T1, Zinc finger protein mex-5 (Caenorhabditis elegans, UniProt Q9XUB2); assay: potency of MEX-5 RNA-binding blockers – biochemical, C. elegans, fluorescence polarization, dose response (AID 1960)
T1 sequence (Q9XUB2 whole entry): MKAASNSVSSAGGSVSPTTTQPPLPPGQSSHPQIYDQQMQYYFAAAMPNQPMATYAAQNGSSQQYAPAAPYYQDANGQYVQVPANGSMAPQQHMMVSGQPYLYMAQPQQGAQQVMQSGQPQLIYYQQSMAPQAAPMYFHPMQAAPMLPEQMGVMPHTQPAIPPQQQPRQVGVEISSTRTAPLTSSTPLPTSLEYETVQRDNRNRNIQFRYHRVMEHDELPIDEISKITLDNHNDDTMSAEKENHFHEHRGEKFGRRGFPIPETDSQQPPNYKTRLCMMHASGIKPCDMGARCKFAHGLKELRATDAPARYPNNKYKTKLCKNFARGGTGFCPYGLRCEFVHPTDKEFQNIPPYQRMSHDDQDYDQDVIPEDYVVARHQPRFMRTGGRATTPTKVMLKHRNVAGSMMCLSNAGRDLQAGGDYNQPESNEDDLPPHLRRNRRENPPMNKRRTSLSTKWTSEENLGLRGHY

[5] = biological target: T2, Low molecular weight phosphotyrosine protein phosphatase (Homo sapiens, UniProt P24666); assay type: functional; settings: read-out: IC50_Mean
[6] = biological target: T3, RNA-binding protein pos-1 (Caenorhabditis elegans, UniProt G5EF15); assay: disruptors of C. elegans POS-1 RNA interaction – biochemical, fluorescence polarization, dose response (AID 1964);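 also: purified POS-1 fused to maltose binding protein made in E. coli; potency of compounds blocking POS-1 binding to fluorescent RNA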
T3 sequence (G5EF15 whole entry): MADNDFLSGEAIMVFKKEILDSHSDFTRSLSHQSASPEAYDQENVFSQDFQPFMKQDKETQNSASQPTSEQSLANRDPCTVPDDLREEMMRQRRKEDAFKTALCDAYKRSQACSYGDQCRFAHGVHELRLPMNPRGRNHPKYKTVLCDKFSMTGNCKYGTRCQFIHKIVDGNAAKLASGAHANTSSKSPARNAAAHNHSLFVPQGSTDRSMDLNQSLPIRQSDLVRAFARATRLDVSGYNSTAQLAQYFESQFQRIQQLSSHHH

[7] = biological target: T2, Low molecular weight phosphotyrosine protein phosphatase; assay type: functional; settings: read-out: IC50_Mean; remark: listed apart in the source
[8] = nonselective StAR promoter luciferase inhibitors – cell-based, luminescence, luciferase reporter, counter-screen for LRH-1 inverse agonist project, dose response (AID 651969); assay type: functional
[9] = biological target: Steroidogenic factor 1 (Homo sapiens, UniProt Q13285); assay: Counterscreen for inverse agonists of the liver receptor homolog-1 (LRH-1; NR5A2): Luminescence-based cell-based high throughput dose response assay to identify inverse agonists of the Steroidogenic Factor 1 Nuclear Receptor (SF1; NR5A1).; assay type: functional
[10] = biological target: Luciferin 4-monooxygenase (Photinus pyralis, UniProt P08659); assay: inhibition of purified Photinus pyralis luciferase – biochemical, luminescence, dose response (AID 1891)
[11] = biological target: Nuclear receptor subfamily 5 group A member 2 (Homo sapiens, UniProt O00482); assay type: functional, cell-based;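 also: HEK293T cells transfected with LRH-1 and a StAR promoter luciferase reporter; potency for inhibitors that lower LRH-1 driven reporter light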
[12] = Luminescence Cell-Based Dose Confirmation HTS to Identify Inhibitors of Platelet Dense Granule Release. [Related pubchem assays: 1663 (Primary HTS), 1678 (Summary of Project)]; assay type: functional
[13] = HepG2 cell cytotoxicity, dose response, cytotoxicity control for non-replicating M. tuberculosis project (AID 489018); assay type: functional; settings: Mycobacterium tuberculosis
[14] = Vero E6 cell cytotoxicity, dose response, cytotoxicity control for non-replicating M. tuberculosis project, secondary assay (AID 492998); assay type: functional, VeroE6; settings: Vero C1008
[15] = Luminescence Cell-Based Dose Response HTS to Identify Inhibitors of 5'UTR Stem-Loop Driven Prion Protein mRNA Translation in H4 Neuroglioblastoma Cells. [Related pubchem assays: 1827 (Project Summary), 1813 (Primary HTS)]; assay type: functional
[16] = cells; assay type: functional
[17] = biological target: T4, Melanocortin receptor 4 (Homo sapiens, UniProt P32245); assay type: functional, cell-based;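 also: Cell-based assay with luminescence read-out, confirmatory dose-response testing for agonist activity of biased ligands at MC4R; human U2OS cells with tagged receptor and beta-arrestin; potency of agonists that increase receptor coupling to beta-arrestin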
[18] = alpha-synuclein stem-loop luciferase translation blockers – H4 neuroglioma cells, luminescence, confirmation (AID 1988); assay type: functional, cell-based
[19] = THP-1 cell cytotoxicity, dose response, cytotoxicity control for non-replicating M. tuberculosis project (AID 489025); assay type: functional
[20] = luciferase reporter signal suppression in cells – H4 neuroglioma cells, luminescence, dose response (AID 1990); assay type: functional, cell-based
[21] = cAMP pathway inhibition in counterscreen cell line – TR-FRET cAMP detection, counter-screen for MC4R biased antagonist project, dose response (AID 602305); assay type: functional, cell-based;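 also: U2OS cells stimulated with forskolin near its EC80 as the cAMP inducer; potency is for inhibition of forskolin-stimulated cAMP signaling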
[22] = biological target: Beta Lactamase (Pseudomonas aeruginosa, UniProt Q932Y6); assay: BLA reporter interference, concentration series – BLA reporter cells, FRET fluorescence, artefact control for NOD2-RIPK2 interaction inhibitor project, dose response (AID 651552); assay type: functional, cell-based
[23] = biological target: T5, Replicative DNA helicase DnaB (Mycobacterium tuberculosis, UniProt P9WMR3); assay: DnaB intein splicing inhibitors, dose response, biochemical, cell-free fluorescence (AID 449749); assay type: functional
T5 sequence (P9WMR3 whole entry): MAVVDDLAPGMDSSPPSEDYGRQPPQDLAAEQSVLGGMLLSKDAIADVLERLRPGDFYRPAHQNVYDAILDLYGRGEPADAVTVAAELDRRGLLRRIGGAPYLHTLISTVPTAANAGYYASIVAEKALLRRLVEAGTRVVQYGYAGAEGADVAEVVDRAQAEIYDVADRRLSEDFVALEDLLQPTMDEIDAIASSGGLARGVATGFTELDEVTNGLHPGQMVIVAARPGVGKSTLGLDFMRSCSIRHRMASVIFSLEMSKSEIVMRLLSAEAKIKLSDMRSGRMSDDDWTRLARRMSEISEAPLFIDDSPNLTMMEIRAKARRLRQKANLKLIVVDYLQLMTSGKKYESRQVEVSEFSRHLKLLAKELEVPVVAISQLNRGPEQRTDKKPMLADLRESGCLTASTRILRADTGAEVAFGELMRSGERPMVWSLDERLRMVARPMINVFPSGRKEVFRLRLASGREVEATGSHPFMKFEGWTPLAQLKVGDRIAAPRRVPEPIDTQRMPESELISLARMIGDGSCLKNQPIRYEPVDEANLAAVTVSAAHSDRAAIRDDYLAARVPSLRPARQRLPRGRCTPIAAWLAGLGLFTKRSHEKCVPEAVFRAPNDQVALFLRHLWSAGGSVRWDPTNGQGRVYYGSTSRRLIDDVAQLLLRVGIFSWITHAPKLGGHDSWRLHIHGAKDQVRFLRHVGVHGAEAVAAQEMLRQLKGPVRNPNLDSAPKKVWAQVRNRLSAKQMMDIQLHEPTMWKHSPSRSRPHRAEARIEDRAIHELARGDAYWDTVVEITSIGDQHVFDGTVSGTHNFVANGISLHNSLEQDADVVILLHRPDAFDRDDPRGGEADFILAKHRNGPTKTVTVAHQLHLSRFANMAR

[24] = reduction of Shn3 3'UTR-driven luciferase in osteoblasts – cell-based, Clone20 osteoblasts, firefly luciferase, cherry-picked, dose response (AID 624132); assay type: functional;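 also: firefly luciferase luminescence from reporter carrying the Shn3 3'UTR in osteoblasts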
[25] = non-specific 3'UTR reporter inhibition in Clone20-Shn3RL – cell-based, Renilla luciferase, cherry-picked, counter-screen for Shn3 inhibitor project, dose response (AID 624133); assay type: functional
[26] = biological target: T6, Protein RecA (Mycobacterium tuberculosis, UniProt P9WHJ3); assay: Fluorescence Cell-Free Homogeneous Dose Retest to Identify Inhibitors of RecA-Intein Splicing Activity. [Related pubchem assays (depositor defined):AID2097, AID2223, AID489010, AID492950]; assay type: functional
T6 sequence (P9WHJ3 whole entry): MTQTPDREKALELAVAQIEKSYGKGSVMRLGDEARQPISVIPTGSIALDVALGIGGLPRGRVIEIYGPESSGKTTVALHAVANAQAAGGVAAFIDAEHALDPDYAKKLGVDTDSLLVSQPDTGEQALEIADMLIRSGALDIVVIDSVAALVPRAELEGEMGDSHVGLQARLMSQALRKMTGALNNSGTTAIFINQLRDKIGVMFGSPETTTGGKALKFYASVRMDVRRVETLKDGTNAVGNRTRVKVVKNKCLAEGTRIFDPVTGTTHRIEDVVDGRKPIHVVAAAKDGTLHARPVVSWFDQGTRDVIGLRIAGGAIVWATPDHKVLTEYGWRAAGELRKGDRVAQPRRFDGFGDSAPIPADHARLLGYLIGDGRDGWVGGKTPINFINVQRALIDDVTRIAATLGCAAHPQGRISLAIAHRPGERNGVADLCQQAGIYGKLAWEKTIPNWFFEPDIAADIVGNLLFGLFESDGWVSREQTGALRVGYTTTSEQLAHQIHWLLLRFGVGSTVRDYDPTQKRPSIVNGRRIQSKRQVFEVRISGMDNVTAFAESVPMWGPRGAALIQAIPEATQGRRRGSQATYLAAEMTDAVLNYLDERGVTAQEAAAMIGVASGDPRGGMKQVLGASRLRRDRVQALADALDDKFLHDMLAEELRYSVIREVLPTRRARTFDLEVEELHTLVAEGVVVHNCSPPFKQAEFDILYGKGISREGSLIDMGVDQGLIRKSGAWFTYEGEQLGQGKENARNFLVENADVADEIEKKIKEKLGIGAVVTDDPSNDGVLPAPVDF

[27] = Fluorescence-based cell-based high throughput dose response assay for inhibitors of the interaction of nucleotide-binding oligomerization domain containing 2 (NOD2) and the receptor-interacting serine-threonine kinase 2 (RIPK2).; assay type: functional; settings: Homo sapiens
[28] = loss of viability in HepG2 cells – cell-based, CellTiter-Glo, cherry-picked, cytotoxicity control for Shn3 inhibitor project, dose response (AID 624134); assay type: functional
[29] = biological target: T4, Melanocortin receptor 4; assay: inhibitors of MC4R cAMP signaling – cell-based, TR-FRET, biased antagonists, dose response (AID 602298); assay type: functional;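 also: antagonist potency against agonist-stimulated cAMP production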
[30] = biological target: Induced myeloid leukemia cell differentiation protein Mcl-1 (Homo sapiens, UniProt Q07820); assay type: functional
[31] = biological target: Hepatocyte nuclear factor 4-alpha (Homo sapiens, UniProt P41235); assay type: functional, cell-based;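 also: biochemical luminescence-based dose-response counterscreen measuring inhibition of HNF4 dimerization, run alongside a screen for blockers of ABHD5–perilipin-5 interaction; split luciferase complementation of HNF4 fusion proteins in cell lysate measuring dimerization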
[32] = biological target: V-type proton ATPase subunit c' (Saccharomyces cerevisiae S288c, UniProt P32842); assay: Dose Response of Small Molecules that Regulate V-ATPase Proton Transport in Yeast using pHLuorin, Cherry Pick 2.; assay type: functional; settings: read-out: EC50_MICROM
[33] = system: Vero; assay: cells; assay type: functional; settings: Chlorocebus sabaeus

T4 sequence (P32245 whole entry): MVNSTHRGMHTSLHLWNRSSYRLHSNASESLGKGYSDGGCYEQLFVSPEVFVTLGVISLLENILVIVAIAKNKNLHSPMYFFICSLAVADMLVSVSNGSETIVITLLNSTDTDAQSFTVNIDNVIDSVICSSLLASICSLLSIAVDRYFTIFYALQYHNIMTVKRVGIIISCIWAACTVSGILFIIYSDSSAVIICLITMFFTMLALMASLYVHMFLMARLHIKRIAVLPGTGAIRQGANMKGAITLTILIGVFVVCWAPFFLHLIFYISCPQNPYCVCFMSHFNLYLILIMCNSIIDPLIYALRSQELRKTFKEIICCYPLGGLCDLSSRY
T2 sequence (P24666 whole entry, the tested form may be a part): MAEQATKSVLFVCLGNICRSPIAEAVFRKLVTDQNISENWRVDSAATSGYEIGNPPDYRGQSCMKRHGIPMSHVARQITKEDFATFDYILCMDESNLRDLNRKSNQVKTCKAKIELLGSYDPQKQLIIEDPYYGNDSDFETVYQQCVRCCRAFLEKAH
Chain of Beta Lactamase (Q932Y6 whole entry): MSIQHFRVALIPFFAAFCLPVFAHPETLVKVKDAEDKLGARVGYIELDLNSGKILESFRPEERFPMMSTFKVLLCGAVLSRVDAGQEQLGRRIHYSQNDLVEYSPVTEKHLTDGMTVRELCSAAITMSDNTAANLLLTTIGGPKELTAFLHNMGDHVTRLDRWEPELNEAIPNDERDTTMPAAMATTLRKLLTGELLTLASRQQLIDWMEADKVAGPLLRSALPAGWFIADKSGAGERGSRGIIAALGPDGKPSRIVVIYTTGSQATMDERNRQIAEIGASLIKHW
Chain of Tyrosine-protein phosphatase non-receptor type 5 (P54829 whole entry): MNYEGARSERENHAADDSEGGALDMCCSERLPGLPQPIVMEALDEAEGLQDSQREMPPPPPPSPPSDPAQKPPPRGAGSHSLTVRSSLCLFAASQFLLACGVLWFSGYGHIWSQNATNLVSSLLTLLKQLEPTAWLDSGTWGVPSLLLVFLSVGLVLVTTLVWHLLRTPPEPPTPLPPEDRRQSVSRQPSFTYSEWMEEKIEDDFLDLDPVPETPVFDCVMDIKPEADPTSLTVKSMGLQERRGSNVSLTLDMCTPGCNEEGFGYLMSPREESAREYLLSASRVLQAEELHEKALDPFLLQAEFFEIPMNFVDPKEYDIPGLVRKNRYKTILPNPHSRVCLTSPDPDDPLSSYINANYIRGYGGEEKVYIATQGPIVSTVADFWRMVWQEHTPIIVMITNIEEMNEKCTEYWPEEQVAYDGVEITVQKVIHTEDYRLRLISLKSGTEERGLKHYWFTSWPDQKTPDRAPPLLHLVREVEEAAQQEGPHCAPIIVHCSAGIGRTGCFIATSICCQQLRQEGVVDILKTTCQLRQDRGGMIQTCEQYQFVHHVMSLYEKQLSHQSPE
Chain of V-type proton ATPase subunit c' (P32842 whole entry): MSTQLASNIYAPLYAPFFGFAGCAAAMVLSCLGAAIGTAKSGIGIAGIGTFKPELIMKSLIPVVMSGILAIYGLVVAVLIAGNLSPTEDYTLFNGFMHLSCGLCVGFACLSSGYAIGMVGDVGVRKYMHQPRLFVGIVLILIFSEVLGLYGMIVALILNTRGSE
Chain of Induced myeloid leukemia cell differentiation protein Mcl-1 (Q07820 whole entry, the tested form may be a part): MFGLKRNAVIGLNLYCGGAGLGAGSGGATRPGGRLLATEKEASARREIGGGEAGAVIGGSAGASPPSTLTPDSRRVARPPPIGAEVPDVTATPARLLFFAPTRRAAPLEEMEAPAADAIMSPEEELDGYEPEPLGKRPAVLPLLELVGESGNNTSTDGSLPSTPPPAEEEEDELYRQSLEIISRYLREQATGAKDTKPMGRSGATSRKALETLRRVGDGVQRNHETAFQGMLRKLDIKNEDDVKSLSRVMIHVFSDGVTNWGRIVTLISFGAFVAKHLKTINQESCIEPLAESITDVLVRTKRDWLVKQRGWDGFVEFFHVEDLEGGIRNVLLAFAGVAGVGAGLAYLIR
Chain of Dual specificity protein phosphatase 3 (P51452 whole entry): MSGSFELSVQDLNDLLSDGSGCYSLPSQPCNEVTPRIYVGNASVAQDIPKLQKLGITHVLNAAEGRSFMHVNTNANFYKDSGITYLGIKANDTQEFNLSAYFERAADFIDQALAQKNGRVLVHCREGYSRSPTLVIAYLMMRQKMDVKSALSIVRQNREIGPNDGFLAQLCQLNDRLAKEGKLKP
Chain of Steroidogenic factor 1 (Q13285 whole entry): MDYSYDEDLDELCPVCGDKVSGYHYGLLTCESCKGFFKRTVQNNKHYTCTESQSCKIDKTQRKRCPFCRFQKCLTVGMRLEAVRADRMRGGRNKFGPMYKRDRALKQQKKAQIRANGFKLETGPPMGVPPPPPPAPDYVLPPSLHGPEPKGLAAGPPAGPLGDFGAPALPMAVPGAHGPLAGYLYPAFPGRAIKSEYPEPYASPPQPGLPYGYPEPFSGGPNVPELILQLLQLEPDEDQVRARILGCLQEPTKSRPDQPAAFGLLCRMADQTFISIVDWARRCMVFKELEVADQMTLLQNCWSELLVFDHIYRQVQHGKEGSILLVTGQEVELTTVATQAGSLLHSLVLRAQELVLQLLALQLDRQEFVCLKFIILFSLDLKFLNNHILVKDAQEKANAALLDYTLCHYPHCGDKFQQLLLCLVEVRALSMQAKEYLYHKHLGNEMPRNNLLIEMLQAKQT
Chain of Tyrosine-protein phosphatase non-receptor type 11 (Q06124 whole entry): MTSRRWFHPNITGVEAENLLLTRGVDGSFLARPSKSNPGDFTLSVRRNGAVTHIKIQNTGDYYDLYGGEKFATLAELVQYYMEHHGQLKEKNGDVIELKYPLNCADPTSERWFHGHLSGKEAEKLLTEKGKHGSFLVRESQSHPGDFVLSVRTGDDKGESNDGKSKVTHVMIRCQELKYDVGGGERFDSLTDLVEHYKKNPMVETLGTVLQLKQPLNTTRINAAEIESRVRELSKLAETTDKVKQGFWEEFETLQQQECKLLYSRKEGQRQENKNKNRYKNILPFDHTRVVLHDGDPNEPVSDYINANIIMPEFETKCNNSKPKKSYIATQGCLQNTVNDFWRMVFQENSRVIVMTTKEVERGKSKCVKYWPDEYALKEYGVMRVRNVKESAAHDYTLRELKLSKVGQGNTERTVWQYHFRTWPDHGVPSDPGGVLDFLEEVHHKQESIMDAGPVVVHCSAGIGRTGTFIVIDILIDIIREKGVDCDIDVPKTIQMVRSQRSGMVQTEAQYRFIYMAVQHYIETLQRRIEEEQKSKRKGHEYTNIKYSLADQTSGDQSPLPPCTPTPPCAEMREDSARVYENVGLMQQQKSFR
Chain of Nuclear receptor subfamily 5 group A member 2 (O00482 whole entry): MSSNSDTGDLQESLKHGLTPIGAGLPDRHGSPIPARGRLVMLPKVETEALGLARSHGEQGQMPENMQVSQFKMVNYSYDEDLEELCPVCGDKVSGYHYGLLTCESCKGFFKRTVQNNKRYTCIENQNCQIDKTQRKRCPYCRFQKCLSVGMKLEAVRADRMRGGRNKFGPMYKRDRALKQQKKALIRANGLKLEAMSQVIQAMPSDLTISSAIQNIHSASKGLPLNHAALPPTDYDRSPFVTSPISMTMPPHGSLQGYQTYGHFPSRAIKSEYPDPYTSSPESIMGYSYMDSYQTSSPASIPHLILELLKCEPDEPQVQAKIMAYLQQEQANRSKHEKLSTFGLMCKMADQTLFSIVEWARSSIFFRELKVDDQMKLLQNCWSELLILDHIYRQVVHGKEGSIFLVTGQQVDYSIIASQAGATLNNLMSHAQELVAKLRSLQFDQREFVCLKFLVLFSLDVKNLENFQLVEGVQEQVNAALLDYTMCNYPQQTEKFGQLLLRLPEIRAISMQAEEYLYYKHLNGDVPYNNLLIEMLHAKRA
Chain of Hepatocyte nuclear factor 4-alpha (P41235 whole entry, the tested form may be a part): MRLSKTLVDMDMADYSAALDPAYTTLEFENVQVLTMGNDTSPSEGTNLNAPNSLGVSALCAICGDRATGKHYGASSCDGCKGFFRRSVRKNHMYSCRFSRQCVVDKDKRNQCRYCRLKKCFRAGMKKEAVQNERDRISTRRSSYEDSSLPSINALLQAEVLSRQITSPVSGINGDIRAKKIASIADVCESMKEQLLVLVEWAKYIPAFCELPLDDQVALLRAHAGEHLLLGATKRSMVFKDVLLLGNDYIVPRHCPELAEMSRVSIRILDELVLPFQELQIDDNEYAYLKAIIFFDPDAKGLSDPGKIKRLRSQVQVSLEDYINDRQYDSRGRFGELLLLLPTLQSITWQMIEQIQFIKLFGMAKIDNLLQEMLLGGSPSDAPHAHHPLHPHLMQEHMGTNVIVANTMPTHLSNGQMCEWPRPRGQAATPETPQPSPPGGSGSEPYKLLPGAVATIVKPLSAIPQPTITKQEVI
Chain of Luciferin 4-monooxygenase (P08659 whole entry): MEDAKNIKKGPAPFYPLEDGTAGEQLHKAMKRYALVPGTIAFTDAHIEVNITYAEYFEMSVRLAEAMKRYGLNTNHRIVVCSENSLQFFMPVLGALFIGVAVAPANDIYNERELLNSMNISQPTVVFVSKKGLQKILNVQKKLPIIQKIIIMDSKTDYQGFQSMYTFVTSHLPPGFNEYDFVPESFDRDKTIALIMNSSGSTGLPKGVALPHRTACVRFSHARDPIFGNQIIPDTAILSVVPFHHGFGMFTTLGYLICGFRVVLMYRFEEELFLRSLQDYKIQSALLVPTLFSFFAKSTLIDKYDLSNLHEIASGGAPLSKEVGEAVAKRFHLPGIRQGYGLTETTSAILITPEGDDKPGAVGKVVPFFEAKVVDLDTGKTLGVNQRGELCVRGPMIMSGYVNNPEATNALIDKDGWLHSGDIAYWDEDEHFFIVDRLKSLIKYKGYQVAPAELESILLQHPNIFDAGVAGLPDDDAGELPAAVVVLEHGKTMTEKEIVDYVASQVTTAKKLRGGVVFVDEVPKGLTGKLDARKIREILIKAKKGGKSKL

Cc1ccc(NC(=O)CCn2c(=S)oc3ccccc32)cc1F
IC50 [1]: > 80 µM (inactive) | IC50 [2]: 3.14 µM (active) | IC50 [3]: 7.02 µM (active)

N#CC1=C(N)OC2=C(C(=O)CC(c3ccco3)C2)C1c1ccc(OCc2c(F)cccc2Cl)cc1 (stereo not drawn)
EC50 [4]: > 300 µM (not active) | IC50 [5]: 35.1 µM (inactive) | EC50 [6]: > 300 µM (not active) | IC50 [7]: > 80 µM (inactive)

CCC(=O)Nc1nnc(SCC(=O)NCCc2ccc(OC)c(OC)c2)s1
IC50 [8]: 35.9 µM (inactive) | IC50 [9]: 2.05 µM (active) | EC50 [10]: > 112 µM (not active) | IC50 [11]: 12 µM (inactive) | EC50 [12]: > 112 µM (not active)

CN(C)CCCN(C(=O)CCc1ccccc1)c1nc2ccc(Cl)cc2s1
CC50 [13]: 12.4 µM (active) | CC50 [14]: 17.1 µM (active) | EC50 [15]: > 120 µM (not active) | IC50 [16]: 22.9 µM (active) | EC50 [17]: > 89.2 µM (inactive) | EC50 [18]: > 120 µM (not active) | CC50 [19]: 16.6 µM (active) | EC50 [20]: > 60 µM (not active)

Cc1cccc(CS(=O)(=O)c2ncc(Cl)c(C(=O)NCc3ccc4c(c3)OCO4)n2)c1
IC50 [21]: > 64.6 µM (inactive) | IC50 [22]: 21.1 µM (inactive) | AC50 [23]: 3.39 µM (active) | AC50 [24]: 0.938 µM (active) | AC50 [25]: 11.3 µM (active) | EC50 [26]: 3.52 µM (active) | IC50 [27]: 3.95 µM (active) | AC50 [28]: 41.3 µM (active) | IC50 [29]: > 64.6 µM (inactive)

Cc1cccc(NC(=O)CSc2nnc(-c3ccco3)c(-c3ccco3)n2)c1
IC50 [30]: 5.78 µM (active) | IC50 [31]: 1.42 µM (active)

CN1C(=O)/C(=C\c2ccc(Br)s2)C(=O)NC1=S
EC50 [32]: 6.43 µM (active) | CC50 [33]: 22.9 µM (active)

Source: ChEMBL document CHEMBL1201862, “PubChem BioAssay data set” (2004)
